Laboratory results: article PMC9934367, “Functional impact of subunit composition and compensation on Drosophila melanogaster nicotinic receptors–targets of neonicotinoids” (PLOS Genetics, 2023)

Test system: D. melanogaster nAChRs
Assay: Comparison of agonist activity between nAChRs expressed in X. laevis oocytes (one-way ANOVA, Kruskal-Wallis)
Assay type: cell-based
Experimental: We minimised the use of X. laevis according to the UK Animals (Scientific Procedures) Act, 1986. […] Oocytes were defolliculated after collagenase treatment in Ca^2+-free standard oocyte saline (Ca^2+-free SOS). cRNAs of the nAChR subunits and co-factors mixed at a concentration of 0.1 mg/mL was injected into oocytes at a volume of 50 nL. Then the oocytes were incubated in the incubation medium (SOS supplemented with sodium pyruvate (Nacalai Tesque, #13058–12), penicillin-streptomycin (MilliporeSigma, #P4333), gentamycin (Nacalai Tesque, #16672–04), and 4% horse serum (Thermo Fisher Scientific, #26050–070) for 3−4 days prior to electrophysiology.
Each defolliculated X. laevis oocyte was secured in a Perspex recording chamber and perfused with the standard oocyte saline (SOS) containing 0.5 μM atropine (SOSA) at a flow rate of 7−10 mL/min [48]. Two glass electrodes filled with 2 M KCl were impaled into each oocyte and the membrane potential was clamped at -100 mV. […] The peak amplitude of the response was measured and analysed by pCLAMP (Molecular Devices, USA).
Y=Imax/1+10^(logEC50‐X)nH
Where Y is the normalised response, X is log[ligand (M)], EC50 is the half maximal concentration (M), Imax is the maximum normalised response and nH is the Hill coefficient.
Prism software was employed for the statistical analyses. […] One-way ANOVA was used to analyse the differences of the ligand agonist activity in terms of pEC50 on the various nAChRs expressed in X. laevis as well as data obtained with D. melanogaster larvae and adults.

[1] = Dα1/Dβ1/Dβ2 vs. Dα1/Dα3/Dβ1/Dβ2
[2] = Dα1/Dβ1/Dβ2 vs. Dα2/Dα3/Dβ1/Dβ2
[3] = Dα1/Dβ1 vs. Dα1/Dα2/Dα3/Dβ1/Dβ2
[4] = Dα2/Dα3/Dβ1/Dβ2 vs. Dα1/Dα2/Dα3/Dβ1/Dβ2
[5] = Dα2/Dα3/Dβ1 vs. Dα1/Dα2/Dα3/Dβ1
[6] = Dα2/Dα3/Dβ1 vs. Dα1/Dα2/Dα3/Dβ1/Dβ2
[7] = Dα2/Dα3/Dβ1 vs. Dα1/Dα2/Dβ1/Dβ2
[8] = Dα2/Dα3/Dβ1 vs. Dα1/Dα3/Dβ1/Dβ2
[9] = Dα2/Dα3/Dβ1 vs. Dα2/Dα3/Dβ1/Dβ2
[10] = Dα3/Dβ1/Dβ2 vs. Dα1/Dα2/Dα3/Dβ1/Dβ2
[11] = Dα3/Dβ1/Dβ2 vs. Dα1/Dα2/Dβ1/Dβ2
[12] = Dα3/Dβ1/Dβ2 vs. Dα1/Dα3/Dβ1/Dβ2
[13] = Dα3/Dβ1/Dβ2 vs. Dα2/Dα3/Dβ1/Dβ2
[14] = Dα3/Dβ1 vs. Dα1/Dα2/Dα3/Dβ1/Dβ2

**Q.** For `CN/C(=N\[N+](=O)[O-])NCc1cnc(Cl)s1` [Clothianidin, clothianidin], which “Difference of Imax values, nAChRs compared” value (shortened to “Difference of Imax values”) [1] is on record?
**A.** -0.324

**Q.** And the “Difference of pEC50 values, nAChRs compared” value (shortened to “Difference of pEC50 values”) [1]?
**A.** -0.76

**Q.** And the “Difference of Imax values” value [2]?
**A.** -0.274

**Q.** What about the “Difference of pEC50 values” value [2] of the same compound?
**A.** -0.65

**Q.** And the “Difference of Imax values” value (Dα1/Dβ1/Dβ2 vs. Dα3/Dβ1/Dβ2)?
**A.** -0.132

**Q.** And the “Difference of pEC50 values” value (Dα1/Dβ1/Dβ2 vs. Dα3/Dβ1/Dβ2)?
**A.** -0.82

**Q.** And the “Difference of Imax values” value (Dα1/Dβ1 vs. Dα1/Dα2/Dα3/Dβ1)?
**A.** -0.309

**Q.** What about the “Difference of pEC50 values” value (Dα1/Dβ1 vs. Dα1/Dα2/Dα3/Dβ1) of the same compound?
**A.** 0.58

**Q.** What about the “Difference of Imax values” value [3] of the same compound?
**A.** -0.304

**Q.** And the “Difference of pEC50 values” value [3]?
**A.** 0.54

**Q.** And the “Difference of Imax values” value (Dα1/Dβ1 vs. Dα1/Dα2/Dβ1)?
**A.** -0.191

**Q.** What about the “Difference of pEC50 values” value (Dα1/Dβ1 vs. Dα1/Dα2/Dβ1) of the same compound?
**A.** 2.06

**Q.** And the “Difference of Imax values” value (Dα1/Dβ1 vs. Dα1/Dα2/Dβ1/Dβ2)?
**A.** -0.292

**Q.** And the “Difference of pEC50 values” value (Dα1/Dβ1 vs. Dα1/Dα2/Dβ1/Dβ2)?
**A.** 0.82

**Q.** And the “Difference of Imax values” value (Dα1/Dβ1 vs. Dα1/Dα3/Dβ1)?
**A.** -0.119

**Q.** And the “Difference of pEC50 values” value (Dα1/Dβ1 vs. Dα1/Dα3/Dβ1)?
**A.** -0.07

**Q.** What about the “Difference of Imax values” value (Dα1/Dβ1 vs. Dα1/Dα3/Dβ1/Dβ2) of the same compound?
**A.** -0.176

**Q.** What about the “Difference of pEC50 values” value (Dα1/Dβ1 vs. Dα1/Dα3/Dβ1/Dβ2) of the same compound?
**A.** -0.27

**Q.** What about the “Difference of Imax values” value (Dα1/Dβ1 vs. Dα1/Dβ1/Dβ2) of the same compound?
**A.** 0.148

**Q.** What about the “Difference of pEC50 values” value (Dα1/Dβ1 vs. Dα1/Dβ1/Dβ2) of the same compound?
**A.** 0.49

**Q.** And the “Difference of Imax values” value (Dα1/Dβ1 vs. Dα2/Dα3/Dβ1)?
**A.** -0.374

**Q.** What about the “Difference of pEC50 values” value (Dα1/Dβ1 vs. Dα2/Dα3/Dβ1) of the same compound?
**A.** 0.32

**Q.** What about the “Difference of Imax values” value (Dα1/Dβ1 vs. Dα2/Dα3/Dβ1/Dβ2) of the same compound?
**A.** -0.126

**Q.** And the “Difference of pEC50 values” value (Dα1/Dβ1 vs. Dα2/Dα3/Dβ1/Dβ2)?
**A.** -0.16

**Q.** What about the “Difference of Imax values” value (Dα1/Dβ1 vs. Dα3/Dβ1) of the same compound?
**A.** -0.183

**Q.** What about the “Difference of pEC50 values” value (Dα1/Dβ1 vs. Dα3/Dβ1) of the same compound?
**A.** -0.41

**Q.** What about the “Difference of Imax values” value (Dα1/Dβ1 vs. Dα3/Dβ1/Dβ2) of the same compound?
**A.** 0.016

**Q.** What about the “Difference of pEC50 values” value (Dα1/Dβ1 vs. Dα3/Dβ1/Dβ2) of the same compound?
**A.** -0.33

**Q.** And the “Difference of Imax values” value [4]?
**A.** -0.178

**Q.** What about the “Difference of pEC50 values” value [4] of the same compound?
**A.** 0.70

**Q.** What about the “Difference of Imax values” value [5] of the same compound?
**A.** 0.065

**Q.** What about the “Difference of pEC50 values” value [5] of the same compound?
**A.** 0.26

**Q.** What about the “Difference of Imax values” value [6] of the same compound?
**A.** 0.070

**Q.** And the “Difference of pEC50 values” value [6]?
**A.** 0.22

**Q.** And the “Difference of Imax values” value [7]?
**A.** 0.082

**Q.** And the “Difference of pEC50 values” value [7]?
**A.** 0.50

**Q.** And the “Difference of Imax values” value [8]?
**A.** 0.198

**Q.** And the “Difference of pEC50 values” value [8]?
**A.** -0.59

**Q.** And the “Difference of Imax values” value (Dα2/Dα3/Dβ1 vs. Dα1/Dβ1/Dβ2)?
**A.** 0.522

**Q.** What about the “Difference of pEC50 values” value (Dα2/Dα3/Dβ1 vs. Dα1/Dβ1/Dβ2) of the same compound?
**A.** 0.17

**Q.** What about the “Difference of Imax values” value [9] of the same compound?
**A.** 0.248

**Q.** What about the “Difference of pEC50 values” value [9] of the same compound?
**A.** -0.48

**Q.** And the “Difference of Imax values” value (Dα2/Dα3/Dβ1 vs. Dα3/Dβ1/Dβ2)?
**A.** 0.390

**Q.** And the “Difference of pEC50 values” value (Dα2/Dα3/Dβ1 vs. Dα3/Dβ1/Dβ2)?
**A.** -0.65

**Q.** What about the “Difference of Imax values” value [10] of the same compound?
**A.** -0.320

**Q.** And the “Difference of pEC50 values” value [10]?
**A.** 0.87

**Q.** What about the “Difference of Imax values” value [11] of the same compound?
**A.** -0.308

**Q.** And the “Difference of pEC50 values” value [11]?
**A.** 1.15

**Q.** And the “Difference of Imax values” value [12]?
**A.** -0.192

**Q.** What about the “Difference of pEC50 values” value [12] of the same compound?
**A.** 0.06

**Q.** What about the “Difference of Imax values” value [13] of the same compound?
**A.** -0.142

**Q.** What about the “Difference of pEC50 values” value [13] of the same compound?
**A.** 0.17

**Q.** And the “Difference of Imax values” value (Dα3/Dβ1 vs. Dα1/Dα2/Dα3/Dβ1)?
**A.** -0.126

**Q.** And the “Difference of pEC50 values” value (Dα3/Dβ1 vs. Dα1/Dα2/Dα3/Dβ1)?
**A.** 0.99

**Q.** And the “Difference of Imax values” value [14]?
**A.** -0.121

**Q.** And the “Difference of pEC50 values” value [14]?
**A.** 0.95

**Q.** What about the “Difference of Imax values” value (Dα3/Dβ1 vs. Dα1/Dα2/Dβ1) of the same compound?
**A.** -0.008

**Q.** What about the “Difference of pEC50 values” value (Dα3/Dβ1 vs. Dα1/Dα2/Dβ1) of the same compound?
**A.** 2.47

**Q.** What about the “Difference of Imax values” value (Dα3/Dβ1 vs. Dα1/Dα2/Dβ1/Dβ2) of the same compound?
**A.** -0.109

**Q.** And the “Difference of pEC50 values” value (Dα3/Dβ1 vs. Dα1/Dα2/Dβ1/Dβ2)?
**A.** 1.23

**Q.** And the “Difference of Imax values” value (Dα3/Dβ1 vs. Dα1/Dα3/Dβ1)?
**A.** 0.064

**Q.** What about the “Difference of pEC50 values” value (Dα3/Dβ1 vs. Dα1/Dα3/Dβ1) of the same compound?
**A.** 0.34

**Q.** And the “Difference of Imax values” value (Dα3/Dβ1 vs. Dα1/Dα3/Dβ1/Dβ2)?
**A.** 0.007

**Q.** What about the “Difference of pEC50 values” value (Dα3/Dβ1 vs. Dα1/Dα3/Dβ1/Dβ2) of the same compound?
**A.** 0.14

**Q.** And the “Difference of Imax values” value (Dα3/Dβ1 vs. Dα1/Dβ1/Dβ2)?
**A.** 0.331

**Q.** And the “Difference of pEC50 values” value (Dα3/Dβ1 vs. Dα1/Dβ1/Dβ2)?
**A.** 0.90

**Q.** What about the “Difference of Imax values” value (Dα3/Dβ1 vs. Dα2/Dα3/Dβ1) of the same compound?
**A.** -0.191

**Q.** And the “Difference of pEC50 values” value (Dα3/Dβ1 vs. Dα2/Dα3/Dβ1)?
**A.** 0.73

**Q.** What about the “Difference of Imax values” value (Dα3/Dβ1 vs. Dα2/Dα3/Dβ1/Dβ2) of the same compound?
**A.** 0.057

**Q.** What about the “Difference of pEC50 values” value (Dα3/Dβ1 vs. Dα2/Dα3/Dβ1/Dβ2) of the same compound?
**A.** 0.25

**Q.** And the “Difference of Imax values” value (Dα3/Dβ1 vs. Dα3/Dβ1/Dβ2)?
**A.** 0.199

**Q.** And the “Difference of pEC50 values” value (Dα3/Dβ1 vs. Dα3/Dβ1/Dβ2)?
**A.** 0.08
